Measured values: US7612064B2, “Sulfopyrroles” (Takeda Pharmaceutical Company Limited, priority 2003, dated 2009)
pIC50: −log10 of the molar value.

Key:
[1] = Hoechst 33342 nuclear staining; type: cell-based; conditions: for Hoechst 33342 nuclear staining score, H460: H460 cells; for Hoechst 33342 nuclear staining score, HeLa: HeLa cells; for Hoechst 33342 nuclear staining score, Jily: Jily cells; for Hoechst 33342 nuclear staining score, Jurkat: Jurkat cells; for Hoechst 33342 nuclear staining score, MRC5: MRC5 cells; on Hoechst 33342 nuclear staining score, PBLs: key: 0: no activity; 1: weak activity comprising less than 50% of the cells; 2: strong activity comprising more than 50% of the cells;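 on all read-outs here: apoptotic nuclei scored 0 none 1 weak under 50% of cells 2 strong over 50% of cells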
Summary of the method: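 Cells were plated in 96 well tissue culture plates in 80 μl complete medium, with 3-5*10^3 cells per well for adherent lines and 8-10*10^3 for suspension lines. Adherent cells spread for 24 h before treatment, while suspension cells were treated right after seeding. Compounds were added in 20 μl complete medium containing max 5% DMSO.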

Jurkat = assay: MTS proliferation assay; type: cell-based, human; conditions: 72 h
Summary of the method: (§1)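 Proliferation is assessed by MTS conversion, measured as 492 nm absorption. Cells are treated for three days (72 h) with four compound concentrations between 0.3 and 10 μM.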

HeLa = assay: MTS proliferation assay; type: cell-based, human; conditions: 72 h
Summary of the method: as §1

MRC5 = assay: MTS proliferation assay; type: cell-based; conditions: MRC5, 72 h
Summary of the method: as §1

[2] = conc 0.1 (final concentrations in μM), 24 h or 48 h incubation
[3] = conc 0.3 (final concentrations in μM), 24 h or 48 h incubation
[4] = conc 1 (final concentrations in μM), 24 h or 48 h incubation
[5] = conc 3 (final concentrations in μM), 24 h or 48 h incubation

SMILES	Hoechst 33342 nuclear staining score, H460 ([1]; conc 0.1)	Hoechst 33342 nuclear staining score, H460 ([1]; conc 0.3)	Hoechst 33342 nuclear staining score, H460 ([1]; conc 1)	Hoechst 33342 nuclear staining score, H460 ([1]; conc 3)	Hoechst 33342 nuclear staining score, HeLa ([1]; conc 0.1)	Hoechst 33342 nuclear staining score, HeLa ([1]; conc 0.3)	Hoechst 33342 nuclear staining score, HeLa ([1]; conc 1)	Hoechst 33342 nuclear staining score, HeLa ([1]; conc 3)	Hoechst 33342 nuclear staining score, Jily ([1]; conc 0.1)	pIC50 (Jurkat)	pIC50 (HeLa)	pIC50 (MRC5)	Hoechst 33342 nuclear staining score, HeLa [1, 2]	Hoechst 33342 nuclear staining score, HeLa [1, 3]	Hoechst 33342 nuclear staining score, HeLa [1, 4]	Hoechst 33342 nuclear staining score, HeLa [1, 5]	Hoechst 33342 nuclear staining score, Jurkat [1, 2]	Hoechst 33342 nuclear staining score, Jurkat [1, 3]	Hoechst 33342 nuclear staining score, Jurkat [1, 4]	Hoechst 33342 nuclear staining score, Jurkat [1, 5]	further results
COc1cc(-c2cc(-c3cncc(C(=O)O)c3)cn2S(=O)(=O)c2ccc(C)cc2)cc(OC)c1OC.N [Example 66]	0	0	0	0	0	0	0	0	0	< 6.00	< 6.00	< 6.00	–	–	–	–	–	–	–	–	Hoechst 33342 nuclear staining score, Jily ([1]; conc 0.3): 0; Hoechst 33342 nuclear staining score, Jily ([1]; conc 1): 0; Hoechst 33342 nuclear staining score, Jily ([1]; conc 3): 0; Hoechst 33342 nuclear staining score, Jurkat ([1]; conc 0.1): 0; Hoechst 33342 nuclear staining score, Jurkat ([1]; conc 0.3): 0; Hoechst 33342 nuclear staining score, Jurkat ([1]; conc 1): 0; Hoechst 33342 nuclear staining score, Jurkat ([1]; conc 3): 0; Hoechst 33342 nuclear staining score, MRC5 ([1]; conc 0.1): 0; Hoechst 33342 nuclear staining score, MRC5 ([1]; conc 0.3): 0; Hoechst 33342 nuclear staining score, MRC5 ([1]; conc 1): 0; Hoechst 33342 nuclear staining score, MRC5 ([1]; conc 3): 0; Hoechst 33342 nuclear staining score, PBLs ([1]; conc 0.1): 0; Hoechst 33342 nuclear staining score, PBLs ([1]; conc 0.3): 0; Hoechst 33342 nuclear staining score, PBLs ([1]; conc 1): 0; Hoechst 33342 nuclear staining score, PBLs ([1]; conc 3): 0
Cc1ccc(S(=O)(=O)n2cc(CNc3ccc(N4CCOCC4)cc3)cc2-c2ccc3c(c2)OCO3)cc1.Cl [Example 14]	–	–	–	–	–	–	–	–	–	< 6.00	< 6.00	< 6.00	0	0	0	2 (strong activity comprising more than 50% of the cells)	0	0	0	2 (strong activity comprising more than 50% of the cells)	–
Cc1ccc(S(=O)(=O)n2cc(CNCCN3CCCCC3)cc2-c2ccc3c(c2)OCO3)cc1 [Example 18]	–	–	–	–	–	–	–	–	–	< 6.00	< 6.00	< 6.00	0	0	0	0	0	0	0	0	–
COc1cc(-c2cc(CNc3ccc(N4CCOCC4)cc3)cn2S(=O)(=O)c2ccc(C)cc2)cc(OC)c1OC [Example 71]	0	0	2 (strong activity comprising more than 50% of the cells)	2 (strong activity comprising more than 50% of the cells)	0	0	2 (strong activity comprising more than 50% of the cells)	2 (strong activity comprising more than 50% of the cells)	0	> 6.00	> 6.00	> 6.00	–	–	–	–	–	–	–	–	Hoechst 33342 nuclear staining score, Jily ([1]; conc 0.3): 0; Hoechst 33342 nuclear staining score, Jily ([1]; conc 1): 2 (strong activity comprising more than 50% of the cells); Hoechst 33342 nuclear staining score, Jily ([1]; conc 3): 2 (strong activity comprising more than 50% of the cells); Hoechst 33342 nuclear staining score, Jurkat ([1]; conc 0.1): 0; Hoechst 33342 nuclear staining score, Jurkat ([1]; conc 0.3): 2 (strong activity comprising more than 50% of the cells); Hoechst 33342 nuclear staining score, Jurkat ([1]; conc 1): 2 (strong activity comprising more than 50% of the cells); Hoechst 33342 nuclear staining score, Jurkat ([1]; conc 3): 2 (strong activity comprising more than 50% of the cells); Hoechst 33342 nuclear staining score, MRC5 ([1]; conc 0.1): 0; Hoechst 33342 nuclear staining score, MRC5 ([1]; conc 0.3): 0; Hoechst 33342 nuclear staining score, MRC5 ([1]; conc 1): 2 (strong activity comprising more than 50% of the cells); Hoechst 33342 nuclear staining score, MRC5 ([1]; conc 3): 2 (strong activity comprising more than 50% of the cells); Hoechst 33342 nuclear staining score, PBLs ([1]; conc 0.1): 0; Hoechst 33342 nuclear staining score, PBLs ([1]; conc 0.3): 0; Hoechst 33342 nuclear staining score, PBLs ([1]; conc 1): 0; Hoechst 33342 nuclear staining score, PBLs ([1]; conc 3): 0
O=S(=O)(c1cccc(Cl)c1)n1cc(CNc2ccc(-n3ccnc3)cc2)cc1-c1ccc2c(c1)OCO2 [Example 74]	0	0	0	0	0	0	0	0	0	< 6.00	< 6.00	< 6.00	–	–	–	–	–	–	–	–	Hoechst 33342 nuclear staining score, Jily ([1]; conc 0.3): 0; Hoechst 33342 nuclear staining score, Jily ([1]; conc 1): 0; Hoechst 33342 nuclear staining score, Jily ([1]; conc 3): 0; Hoechst 33342 nuclear staining score, Jurkat ([1]; conc 0.1): 0; Hoechst 33342 nuclear staining score, Jurkat ([1]; conc 0.3): 0; Hoechst 33342 nuclear staining score, Jurkat ([1]; conc 1): 0; Hoechst 33342 nuclear staining score, Jurkat ([1]; conc 3): 0; Hoechst 33342 nuclear staining score, MRC5 ([1]; conc 0.1): 0; Hoechst 33342 nuclear staining score, MRC5 ([1]; conc 0.3): 0; Hoechst 33342 nuclear staining score, MRC5 ([1]; conc 1): 0; Hoechst 33342 nuclear staining score, MRC5 ([1]; conc 3): 0; Hoechst 33342 nuclear staining score, PBLs ([1]; conc 0.1): 0; Hoechst 33342 nuclear staining score, PBLs ([1]; conc 0.3): 0; Hoechst 33342 nuclear staining score, PBLs ([1]; conc 1): 0; Hoechst 33342 nuclear staining score, PBLs ([1]; conc 3): 0
Cc1ccc(S(=O)(=O)n2cc(CNCCN3CCCC3)cc2-c2ccc3c(c2)OCO3)cc1 [Example 17]	–	–	–	–	–	–	–	–	–	< 6.00	< 6.00	< 6.00	0	0	0	0	0	0	0	0	–
Cc1ccc(S(=O)(=O)n2cc(-c3cncc(C(N)=O)c3)cc2-c2ccc3c(c2)OCO3)cc1 [Example 50]	–	–	–	–	–	–	–	–	–	> 6.00	< 6.00	< 6.00	0	0	0	2 (strong activity comprising more than 50% of the cells)	0	0	0	2 (strong activity comprising more than 50% of the cells)	–
